Assay results taken from article PMC9323733, “Efficacy of Vafidemstat in Experimental Autoimmune Encephalomyelitis Highlights the KDM1A/RCOR1/HDAC Epigenetic Axis in Multiple Sclerosis” (Pharmaceutics, 2022).
“Also recorded” adds a separate entry of the source.

Legend:
[1] = test system: SJL/J mice infected with TMEV; assay: Theiler's murine encephalomyelitis virus (TMEV) model; assay type: in vivo, mouse
Procedure: Susceptible SJL/J mice (6 weeks old), previously anesthetized with isoflurane, were inoculated in the cerebral parenchyma with 2 × 10^6 plaque forming units (pfu) of the Daniel’s strain of TMEV, diluted in 30 μL of Dulbecco’s Modified Eagle Medium (DMEM) supplemented with 5% fetal bovine serum (FBS). The injection takes place in the right hemisphere of the cerebral cortex using a Hamilton syringe coupled to a pipette tip in such a way that it allows for an exposure of the needle of about 2–3 mm; thus, the virus is always injected at the same depth. Sham animals are subjected to the same protocol, but they only received 30 µL of DMEM supplemented with 5% fetal bovine serum. […] Control mice were treated with vehicle [2% v/v Tween-80 + 98% HPβCD (13% w/v)] following the same administration regime (Figure 4a). The animals were weighed every week from the onset of infection and clinical signs were evaluated using the criterion described by Moses Rodriguez (Mayo Clinic), source of the Daniel’s strain of TMEV to assess the severity of the disease by the general appearance: Score 1 = Shaggy and scruffy hair; 2 = scruffy appearance and hunched back; 3 = no spontaneous movement, reduced induced activity; and Gait: Score 1 = mild ataxia with inconsistent waddling gait; 2 = moderate ataxia with consistent waddling gait; 3 = severe ataxia with reduced righting response; 4 = spastic paresis of hind legs. The score of the animals and motor behavior were analyzed by trained observers blind to treatment and experimental groups.
The screening for locomotor activity was performed by analyzing spontaneous motor activity using an Activity Cage (Activity Monitor System Omnitech Electronics, Inc., Columbus, OH, USA) and by evaluating the mice performance in the Rotarod test. The activity cage consists of a four-compartment metacrylate cage, surrounded by sensors in such a way that it registers the movements of the mouse in both vertical and horizontal position and ambulation. The test consists of introducing the mice into two compartments of the cage placed diagonally so as not to interfere with the sensors of the other mouse. During two five-minute cycles (0–5 min, 5–10 min), horizontal activity (HACTV) or vertical activity (VACTV) are recorded. The first cycle evaluates the spontaneous activity in a new environment and the second measures the activity of the animal once habituated to the new environment. This task was performed on days 60, 70, 78, and 86 post-infection. The rotarod (Ugo Basile, Milan, Italia) consists of a rotating cylinder (roll) suspended above a cage floor turning at a constant speed or acceleration. The system is completed with a stopwatch for each compartment that stops when the mouse falls from the roll to a lever on the bottom of the device. One week prior to the test, mice were trained and familiarized with the test for one minute at a constant speed. The length of time that mice stay on the rotating roll is a measure of their balance and motor coordination. The test consists of measuring the time that mice remain on the roll with constant acceleration for a maximum time of five minutes. Mice that developed strategies to stay on the roll (p.e. seeking support on the wall) were excluded from evaluation. The rotarod test was performed on day 72, 78, and 86 post-infection.
Cervical and lumbar spinal cord segments of spinal cords obtained from EAE mice sacrificed on day 17 or 26 post-immunization were divided and processed for inclusion and sectioning in paraffin and for inclusion in an optimal cutting temperature (OCT) compound and future cryosectioning of the samples. Spinal cord segments were immediately fixed with buffered 10% formalin for 48 h, dehydrated and included in paraffin using standard techniques. […]

[2] = test system: circulating lymphocytes; assay: Toxicity studies, overall statements (circulating lymphocytes, gastrointestinal toxicity); assay type: in vivo, rat and dog; settings: for total number of circulating lymphocytes: at doses effective in EAE and TMEV models
From the text: T r eat m e nt N Ly m p h o c y te s Equivalent m ou se d o se
( mg /k g p. o. ga va g e) (109/ L ) ( mg /k g p.o ga va ge)
6 m ont h s W i sta r r at s
9 m ont h s Be ag le d og s
Eff ec t of t r ea t me nt wi t h O RY-2 00 1 a d mi ni st e r e d by or al ga va ge o n l y m ph oc yt e s ob se r ve d i n G LP
t ox i c ol ogi c a l st udi e s i n r at a nd do g. A ni ma l s we r e t re a t e d or al l y (fi ve c o ns e c ut i ve da ys/ we e k) by ga va ge
28 da ys or 6 mo nt hs ( ra t s) a nd 28 da ys or 9 mo nt hs (dogs). Data re prese nt de me a n ± S D. T he e q ui va l e n t
dos e i n m o use i s i n di c at e d. 1-wa y A N OV A a n d D u n ne t t’ s M ul ti pl e C o m pa ri so n t e st wa s use d.

[3] = molecular target: T1, recombinant HDAC2 (Homo sapiens, UniProt Q92769); assay: HDAC2 fluorimetric biochemical assay
T1 construct: purchased BPS Bioscience 50002
T1 sequence (Q92769 whole entry): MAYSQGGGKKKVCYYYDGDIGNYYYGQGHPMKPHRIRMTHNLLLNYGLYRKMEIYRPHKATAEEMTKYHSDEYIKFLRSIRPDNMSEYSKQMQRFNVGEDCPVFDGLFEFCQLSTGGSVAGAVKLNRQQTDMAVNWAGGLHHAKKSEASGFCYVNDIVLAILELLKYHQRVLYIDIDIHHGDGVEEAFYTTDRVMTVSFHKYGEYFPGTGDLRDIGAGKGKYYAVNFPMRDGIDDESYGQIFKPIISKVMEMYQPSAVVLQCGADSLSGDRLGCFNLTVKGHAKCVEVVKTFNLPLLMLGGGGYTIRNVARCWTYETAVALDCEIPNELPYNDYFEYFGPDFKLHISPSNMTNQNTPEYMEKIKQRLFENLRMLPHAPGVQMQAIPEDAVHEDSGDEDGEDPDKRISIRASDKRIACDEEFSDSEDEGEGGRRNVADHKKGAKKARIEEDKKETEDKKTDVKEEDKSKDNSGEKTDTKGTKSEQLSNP
Procedure: HDAC2 activity was determined using a fluorimetric assay at BPS Bioscience (San Diego, CA, USA). Compounds were dissolved in DMSO (Sigma), and serial dilutions were further diluted in HDAC assay buffer (BPS). These working solutions were incubated in duplicate at room temperature for 3 h in a mixture containing HDAC assay buffer, BSA (Fisher Scientific), and recombinant HDAC2 (BPS). The enzymatic reactions were initiated by the addition of a fluorogenic, acetylated peptide substrate (BPS) and proceeded for 30 min at 37 °C. Then, HDAC assay developer (BPS) was added, and after further incubation at room temperature, fluorescence intensity was measured at an excitation of 360 nm and an emission of 460 nm using a Tecan Infinite M1000 microplate reader. Trichostatin A (TSA, Selleckchem, Houston, TX, USA) was used as a reference inhibitor.
For the biochemical assays, the fluorescence signal relative to the background (assay mixture in the absence of the enzyme) was subtracted from each fluorescent intensity data. Activity in the presence of compound was expressed as a percentage of fluorescence intensity in the absence of the compound.

## Nc1nnc(CN[C@@H]2C[C@H]2c2ccc(OCc3ccccc3)cc2)o1 [ORY-2001]
[1]; p.o. 0.3 and 1.0 mg/kg
  CD4 and CD8 lymphocytes in spinal cord parenchyma: decreased the accumulation of CD4 and CD8 lymphocytes into the parenchyma
  body weight: did not produce any body weight changes
  horizontal activity (activity cage): significantly improved the motor activity in the horizontal activity
  infiltration of immune cells into the spinal cord: diminished after ORY-2001 treatment
  other motor deficits (vertical activity, rotarod): partially reduced other motor deficits
[1]; p.o. 0.3 and 1.0 mg/kg, days 72-76 and 79-83 post-infection
  clinical score: reduced the clinical score
[1]; spinal cord
  astroglial activation: partially limited astroglial activation
  axon integrity: increased axon integrity
  microglial activation (AIF-1 positive cells): significantly reduced microglial activation
[2]
  total number of circulating lymphocytes: did not significantly impact the total number of circulating lymphocytes
[2]; listed as vafidemstat
  total number of circulating lymphocytes: do not significantly impact the total number of circulating lymphocytes; also recorded: do not significantly affect hematology or lymphocyte counts
[2]; at effective doses, listed as vafidemstat
  gastrointestinal toxicity: did not induce any signs of gastrointestinal toxicity; also recorded: without signs of gastro-intestinal toxicity

## CCCCCCCCc1ccc(CCC(N)(CO)CO)cc1 [FTY720, Fingolimod, reference compound]
[3]
  impact on recombinant HDAC2 activity: did not inhibit HDAC; also recorded: unable to confirm the previous studies reporting that FTY720 or FTY720-P had any significant impact
